PubChem BioAssay (NCI)
Several values for one entry are separate records, joined by “and”; a condition that tells them apart may be missing. Equal entries are not always repeated.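 Compound exposure: 48 hours, 5 concentrations, 96-well plates. GI50 marks 50% less growth. Definition used: TGI = concentration required for complete inhibition of growth.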

Tests used:
Experiment in all cases: NCI tumour cell line growth inhibition, 48 h
HOP-18 NSCLC = test system: HOP-18 NSCLC
KM20L2 colon = test system: KM20L2 colon
P388 leukemia = test system: P388 leukemia
DLD-1 colon = test system: DLD-1 colon
XF 498 CNS = test system: XF 498 CNS
DMS 114 small cell lung = test system: DMS 114 small cell lung
SNB-78 CNS = test system: SNB-78 CNS
LXFL 529 NSCLC = test system: LXFL 529 NSCLC
RXF-631 renal = test system: RXF-631 renal
786-0 renal = test system: 786-0 renal

| Structure (SMILES) | TGI (HOP-18 NSCLC) | TGI (KM20L2 colon) | TGI (P388 leukemia) | TGI (DLD-1 colon) | GI50 (XF 498 CNS) | TGI (XF 498 CNS) | TGI (DMS 114 small cell lung) | TGI (SNB-78 CNS) | GI50 (HOP-18 NSCLC) | TGI (LXFL 529 NSCLC) | TGI (RXF-631 renal) | TGI (786-0 renal) |
| --- | --- | --- | --- | --- | --- | --- | --- | --- | --- | --- | --- | --- |
| O=C(O)/C=C/c1c[nH]c(=O)[nH]c1=O | > 500 µM | > 500 µM | > 500 µM | > 500 µM | > 500 µM and 151 µM | > 500 µM | > 500 µM | > 500 µM |  |  |  |  |
| CC12CCC(CC1)C(C)(C)O2 | 88.5 µM | 116 µM | 55.7 µM | 103 µM |  | 5.51 µM | 123 µM | 261 µM | 16.7 µM |  |  |  |
| C=C1C(=O)OC2CC(C)C3C4OC4C(O)C3(C)C(O)C12 (centres undefined) | 72.4 µM | 42.8 µM | 43.7 µM | 87.8 µM |  | 47.4 µM | 45.9 µM | 61.6 µM |  |  |  |  |
| C=C=CC(NC(=O)c1ccccc1)(C(=O)O)C(F)(F)F (centres undefined) | > 100 µM |  |  | > 100 µM |  | > 100 µM | > 100 µM | > 100 µM |  | > 100 µM | > 100 µM |  |
| C/C(N=NS(=O)(=O)c1ccc([N+](=O)[O-])cc1)=C1\C=CC=CN1O | > 100 µM | > 100 µM |  | > 100 µM |  | > 100 µM | > 100 µM | > 100 µM |  | > 100 µM |  | > 100 µM |
| O=C(SCc1cccc2ccccc12)c1ccc(Cl)cc1 |  |  |  |  |  |  |  |  |  |  |  | > 100 µM |
